Earlier results, collected in patent US11472851B2, “Recombinant bacillus subtilis and application thereof” (priority 2019, dated 2022).

Assays:
[1] = test system: poultry
[2] = test system: macrophages

## Sublancin (GLGKAQCAALWLQCASGGTIGCGGGAVACQNYRQFCR; Sublancin)
[1]
  immune function of poultry: enhance the immune function of poultry
[2]
  phagocytosis of macrophages: enhance the phagocytosis of macrophages
